The NIST ThermoML archive (doi:10.1016/j.jct.2017.05.001)

Assay: wn = mass fraction of the nth substance listed
Settings: Liquid; for mass density: Vibrating tube method

OCCNCCO [diethanolamine] + O
viscosity [mPa·s]
Settings | w1 = 0.0993 | w1 = 0.1 | w1 = 0.2 | w1 = 0.3 | w1 = 0.3002 | w1 = 0.3997 | w1 = 0.4
293.15 K, 100 kPa, Concentric cylinders viscometry | – | 1.486 | 2.287 | 3.621 | – | – | 6.311
293.15 K, 100 kPa, Falling or rolling sphere viscometry | 1.493 | – | 2.219 | – | 3.633 | 6.248 | –
293.15 K, 5000 kPa, Falling or rolling sphere viscometry | 1.49 | – | 2.215 | – | 3.617 | 6.351 | –
293.15 K, 10000 kPa, Falling or rolling sphere viscometry | 1.486 | – | 2.214 | – | 3.635 | 6.416 | –
293.15 K, 15000 kPa, Falling or rolling sphere viscometry | 1.49 | – | 2.217 | – | 3.634 | 6.463 | –
293.15 K, 20000 kPa, Falling or rolling sphere viscometry | 1.487 | – | 2.217 | – | 3.661 | 6.534 | –
293.15 K, 25000 kPa, Falling or rolling sphere viscometry | 1.488 | – | 2.218 | – | 3.676 | 6.598 | –
293.15 K, 30000 kPa, Falling or rolling sphere viscometry | 1.487 | – | 2.22 | – | 3.688 | 6.6 | –
293.15 K, 40000 kPa, Falling or rolling sphere viscometry | 1.486 | – | 2.221 | – | 3.714 | 6.683 | –
293.15 K, 60000 kPa, Falling or rolling sphere viscometry | 1.487 | – | 2.242 | – | 3.766 | 6.853 | –
293.15 K, 80000 kPa, Falling or rolling sphere viscometry | 1.49 | – | 2.26 | – | 3.818 | 6.973 | –
293.15 K, 100000 kPa, Falling or rolling sphere viscometry | 1.494 | – | 2.277 | – | 3.874 | 7.169 | –
313.15 K, 100 kPa, Concentric cylinders viscometry | – | 0.914 | 1.343 | 1.977 | – | – | 3.197
313.15 K, 100 kPa, Falling or rolling sphere viscometry | 0.9237 | – | 1.304 | – | 1.98 | 3.168 | –
313.15 K, 5000 kPa, Falling or rolling sphere viscometry | 0.915 | – | 1.292 | – | 1.976 | 3.174 | –
313.15 K, 10000 kPa, Falling or rolling sphere viscometry | 0.9172 | – | 1.296 | – | 1.983 | 3.222 | –
313.15 K, 15000 kPa, Falling or rolling sphere viscometry | 0.9188 | – | 1.301 | – | 1.993 | 3.248 | –
313.15 K, 20000 kPa, Falling or rolling sphere viscometry | 0.9192 | – | 1.303 | – | 2.004 | 3.239 | –
313.15 K, 25000 kPa, Falling or rolling sphere viscometry | 0.9215 | – | 1.309 | – | 2.012 | 3.28 | –

mass density [kg/m3]
Settings | w1 = 0.0993 | w1 = 0.2 | w1 = 0.3002 | w1 = 0.3997
293.15 K, 100 kPa | 1009.4 | 1021.6 | 1034.5 | 1047.5
293.15 K, 500 kPa | 1009.5 | 1021.7 | 1034.7 | 1047.7
293.15 K, 1000 kPa | 1009.7 | 1021.9 | 1034.8 | 1047.9
293.15 K, 2000 kPa | 1010.2 | 1022.3 | 1035.2 | 1048.2
293.15 K, 5000 kPa | 1011.4 | 1023.5 | 1036.3 | 1049.3
293.15 K, 10000 kPa | 1013.6 | 1025.5 | 1038.2 | 1051
293.15 K, 15000 kPa | 1015.6 | 1027.4 | 1040 | 1052.8
293.15 K, 20000 kPa | 1017.7 | 1029.4 | 1041.8 | 1054.5
293.15 K, 30000 kPa | 1021.8 | 1033.3 | 1045.4 | 1058
293.15 K, 40000 kPa | 1025.9 | 1037 | 1049 | 1061.4
293.15 K, 50000 kPa | 1029.7 | 1040.7 | 1052.5 | 1064.7
293.15 K, 60000 kPa | 1033.6 | 1044.4 | 1055.9 | 1068
293.15 K, 70000 kPa | 1037.6 | 1048 | 1059.3 | 1071.2
293.15 K, 80000 kPa | 1041.1 | 1051.4 | 1062.5 | 1074.3
293.15 K, 90000 kPa | 1044.8 | 1054.9 | 1065.8 | 1077.4
293.15 K, 100000 kPa | 1048.5 | 1058.4 | 1069.1 | 1080.6
293.15 K, 110000 kPa | 1051.9 | 1061.6 | 1072.1 | 1083.5
293.15 K, 120000 kPa | 1055.4 | 1064.9 | 1075.3 | 1086.5
293.15 K, 130000 kPa | 1059 | 1068.3 | 1078.5 | 1089.6
293.15 K, 140000 kPa | 1062.2 | 1071.4 | 1081.4 | 1092.4
313.15 K, 100 kPa | 1002.9 | 1014.3 | 1026 | 1038
313.15 K, 500 kPa | 1003.1 | 1014.4 | 1026.2 | 1038.2
313.15 K, 1000 kPa | 1003.4 | 1014.6 | 1026.4 | 1038.4
313.15 K, 2000 kPa | 1003.7 | 1015 | 1026.7 | 1038.7
313.15 K, 5000 kPa | 1005 | 1016.2 | 1027.9 | 1039.8
313.15 K, 10000 kPa | 1007 | 1018.2 | 1029.7 | 1041.7
313.15 K, 15000 kPa | 1009 | 1020.1 | 1031.6 | 1043.4
313.15 K, 20000 kPa | 1011 | 1022 | 1033.4 | 1045.1
